Experiments:
PIM2 = PIM2 (Homo sapiens, UniProt Q9P1W9); conditions: 1 μM; Run 1, Run 2
STK32B/YANK2 = STK32B/YANK2 (Homo sapiens, UniProt Q9NY57); conditions: 1 μM; Run 1, Run 2
MKK4 = molecular target: T1, MKK4 (Homo sapiens, UniProt P45985); conditions: 1 μM; Run 1, Run 2
T1 sequence (P45985 1-399): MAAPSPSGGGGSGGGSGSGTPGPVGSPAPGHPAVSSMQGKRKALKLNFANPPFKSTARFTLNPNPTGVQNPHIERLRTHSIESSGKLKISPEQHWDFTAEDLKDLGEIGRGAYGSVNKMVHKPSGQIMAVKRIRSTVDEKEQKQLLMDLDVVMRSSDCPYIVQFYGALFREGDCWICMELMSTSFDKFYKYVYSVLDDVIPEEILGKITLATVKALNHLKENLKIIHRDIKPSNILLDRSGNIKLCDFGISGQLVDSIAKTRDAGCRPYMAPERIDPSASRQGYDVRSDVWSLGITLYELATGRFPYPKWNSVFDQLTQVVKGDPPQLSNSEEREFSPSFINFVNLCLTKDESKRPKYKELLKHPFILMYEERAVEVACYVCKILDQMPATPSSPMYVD

MKK6 = molecular target: T2, MKK6 (Homo sapiens, UniProt P52564); assay: biochemical; conditions: read-out: % enzyme activity, 1 μM; Run 1, Run 2
T2 sequence (P52564 1-334): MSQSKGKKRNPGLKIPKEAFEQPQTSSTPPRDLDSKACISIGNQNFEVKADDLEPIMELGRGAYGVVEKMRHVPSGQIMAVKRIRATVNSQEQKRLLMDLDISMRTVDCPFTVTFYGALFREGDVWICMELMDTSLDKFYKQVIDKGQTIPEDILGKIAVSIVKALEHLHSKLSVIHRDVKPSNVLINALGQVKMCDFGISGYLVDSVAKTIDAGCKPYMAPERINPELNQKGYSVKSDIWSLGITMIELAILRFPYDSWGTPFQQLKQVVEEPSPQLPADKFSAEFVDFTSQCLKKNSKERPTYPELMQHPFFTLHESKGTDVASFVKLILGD

LATS2 = molecular target: T3, LATS2 (Homo sapiens, UniProt Q9NRM7); conditions: 1 μM; Run 1, Run 2
T3 sequence (Q9NRM7 1-1088): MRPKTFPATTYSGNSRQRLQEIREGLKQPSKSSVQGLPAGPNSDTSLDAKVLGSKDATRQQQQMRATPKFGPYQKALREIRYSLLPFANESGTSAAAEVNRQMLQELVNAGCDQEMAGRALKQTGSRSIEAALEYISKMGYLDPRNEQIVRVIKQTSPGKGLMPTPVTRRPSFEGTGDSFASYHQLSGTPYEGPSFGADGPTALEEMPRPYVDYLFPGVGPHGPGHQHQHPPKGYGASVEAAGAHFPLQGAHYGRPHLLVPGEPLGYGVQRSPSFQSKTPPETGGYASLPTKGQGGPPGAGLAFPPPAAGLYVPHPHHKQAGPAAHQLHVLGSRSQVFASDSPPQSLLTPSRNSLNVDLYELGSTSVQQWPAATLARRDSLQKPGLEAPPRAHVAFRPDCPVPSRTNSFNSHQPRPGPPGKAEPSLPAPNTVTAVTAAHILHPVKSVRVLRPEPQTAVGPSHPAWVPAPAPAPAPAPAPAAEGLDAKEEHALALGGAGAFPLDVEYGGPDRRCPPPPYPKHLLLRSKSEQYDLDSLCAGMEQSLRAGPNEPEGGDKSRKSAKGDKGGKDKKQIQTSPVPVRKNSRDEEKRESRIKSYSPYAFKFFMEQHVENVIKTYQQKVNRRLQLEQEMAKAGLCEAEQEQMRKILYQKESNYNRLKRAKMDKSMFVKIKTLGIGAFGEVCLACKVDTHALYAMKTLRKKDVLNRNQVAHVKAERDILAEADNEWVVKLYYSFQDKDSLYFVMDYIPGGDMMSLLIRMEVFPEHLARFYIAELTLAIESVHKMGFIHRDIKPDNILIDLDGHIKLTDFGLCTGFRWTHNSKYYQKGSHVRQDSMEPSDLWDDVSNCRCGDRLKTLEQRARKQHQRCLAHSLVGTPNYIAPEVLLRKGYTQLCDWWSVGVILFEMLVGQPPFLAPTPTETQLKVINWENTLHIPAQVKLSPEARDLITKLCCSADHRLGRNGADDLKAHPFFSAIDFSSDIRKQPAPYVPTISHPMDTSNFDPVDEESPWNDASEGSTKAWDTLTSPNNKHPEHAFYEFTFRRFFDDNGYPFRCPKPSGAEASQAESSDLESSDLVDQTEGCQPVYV

STK22D/TSSK1 = molecular target: T4, STK22D/TSSK1 (Homo sapiens, UniProt Q9BXA7); assay: biochemical; conditions: read-out: % enzyme activity, 1 μM; Run 1, Run 2
T4 sequence (Q9BXA7 1-367): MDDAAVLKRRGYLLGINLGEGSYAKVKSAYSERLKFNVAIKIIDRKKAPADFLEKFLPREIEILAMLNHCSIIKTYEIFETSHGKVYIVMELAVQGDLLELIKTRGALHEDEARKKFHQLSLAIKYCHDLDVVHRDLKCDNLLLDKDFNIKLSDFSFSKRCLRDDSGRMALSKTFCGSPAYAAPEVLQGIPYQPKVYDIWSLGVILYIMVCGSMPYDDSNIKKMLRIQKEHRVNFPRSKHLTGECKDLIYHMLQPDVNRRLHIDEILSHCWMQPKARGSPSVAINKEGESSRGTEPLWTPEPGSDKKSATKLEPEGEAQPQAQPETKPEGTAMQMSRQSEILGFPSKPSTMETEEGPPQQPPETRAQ

MST3/STK24 = MST3/STK24 (Homo sapiens, UniProt Q9Y6E0); conditions: 1 μM; Run 1, Run 2
RAF1 = RAF1 (Homo sapiens, UniProt P04049); assay: biochemical; conditions: read-out: % enzyme activity, 1 μM; Run 1, Run 2
FES/FPS = FES/FPS (Homo sapiens, UniProt P07332); conditions: 1 μM; Run 1, Run 2
Aurora C = molecular target: T5, Aurora C (Homo sapiens, UniProt Q9UQB9); assay: biochemical; conditions: read-out: % enzyme activity, 1 μM; Run 1, Run 2
T5 sequence (Q9UQB9 1-309): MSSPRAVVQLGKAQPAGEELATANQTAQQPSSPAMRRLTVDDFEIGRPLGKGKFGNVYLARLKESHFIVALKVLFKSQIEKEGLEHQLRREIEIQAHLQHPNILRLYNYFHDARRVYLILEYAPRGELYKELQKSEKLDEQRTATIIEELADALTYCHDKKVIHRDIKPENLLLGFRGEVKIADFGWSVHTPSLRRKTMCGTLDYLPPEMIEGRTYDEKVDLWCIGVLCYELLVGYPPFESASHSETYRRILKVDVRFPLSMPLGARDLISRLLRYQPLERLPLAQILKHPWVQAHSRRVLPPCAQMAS

Sequence of RAF1 (P04049 whole entry): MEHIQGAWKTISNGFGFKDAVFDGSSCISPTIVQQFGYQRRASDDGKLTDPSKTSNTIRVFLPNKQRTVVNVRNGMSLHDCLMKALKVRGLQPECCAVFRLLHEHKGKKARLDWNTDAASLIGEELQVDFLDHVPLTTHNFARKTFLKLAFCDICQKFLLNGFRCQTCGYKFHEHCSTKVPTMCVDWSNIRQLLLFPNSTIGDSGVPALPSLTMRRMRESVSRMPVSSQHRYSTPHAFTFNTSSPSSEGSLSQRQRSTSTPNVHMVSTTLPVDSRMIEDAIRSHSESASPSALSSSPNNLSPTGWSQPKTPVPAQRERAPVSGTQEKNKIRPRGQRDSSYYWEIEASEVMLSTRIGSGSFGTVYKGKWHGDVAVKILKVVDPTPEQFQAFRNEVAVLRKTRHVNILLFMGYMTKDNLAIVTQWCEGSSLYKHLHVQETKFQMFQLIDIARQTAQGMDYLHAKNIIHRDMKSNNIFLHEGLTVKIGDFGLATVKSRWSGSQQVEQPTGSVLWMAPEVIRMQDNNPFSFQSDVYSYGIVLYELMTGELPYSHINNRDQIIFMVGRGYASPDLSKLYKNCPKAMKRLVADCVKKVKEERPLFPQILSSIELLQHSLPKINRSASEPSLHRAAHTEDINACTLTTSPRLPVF
Sequence of PIM2 (Q9P1W9 whole entry): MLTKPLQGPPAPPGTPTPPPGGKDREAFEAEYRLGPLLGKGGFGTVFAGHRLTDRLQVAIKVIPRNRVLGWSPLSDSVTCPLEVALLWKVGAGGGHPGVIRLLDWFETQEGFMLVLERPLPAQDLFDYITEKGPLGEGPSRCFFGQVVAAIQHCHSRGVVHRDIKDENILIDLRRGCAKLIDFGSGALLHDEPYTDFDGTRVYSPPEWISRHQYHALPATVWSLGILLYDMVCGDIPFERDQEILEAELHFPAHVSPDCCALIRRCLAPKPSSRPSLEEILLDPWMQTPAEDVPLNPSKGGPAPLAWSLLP
Sequence of MST3/STK24 (Q9Y6E0 whole entry): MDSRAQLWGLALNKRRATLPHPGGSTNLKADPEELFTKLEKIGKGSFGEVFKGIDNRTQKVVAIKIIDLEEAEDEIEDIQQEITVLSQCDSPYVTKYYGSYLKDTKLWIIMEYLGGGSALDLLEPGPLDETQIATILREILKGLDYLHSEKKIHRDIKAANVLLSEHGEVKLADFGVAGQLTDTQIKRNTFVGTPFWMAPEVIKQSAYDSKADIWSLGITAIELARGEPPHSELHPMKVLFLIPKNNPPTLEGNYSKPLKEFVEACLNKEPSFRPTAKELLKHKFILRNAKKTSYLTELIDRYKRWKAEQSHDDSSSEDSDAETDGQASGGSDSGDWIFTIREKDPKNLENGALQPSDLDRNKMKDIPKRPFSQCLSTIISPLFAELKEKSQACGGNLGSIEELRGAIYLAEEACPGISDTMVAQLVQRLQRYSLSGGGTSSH
Sequence of STK32B/YANK2 (Q9NY57 whole entry): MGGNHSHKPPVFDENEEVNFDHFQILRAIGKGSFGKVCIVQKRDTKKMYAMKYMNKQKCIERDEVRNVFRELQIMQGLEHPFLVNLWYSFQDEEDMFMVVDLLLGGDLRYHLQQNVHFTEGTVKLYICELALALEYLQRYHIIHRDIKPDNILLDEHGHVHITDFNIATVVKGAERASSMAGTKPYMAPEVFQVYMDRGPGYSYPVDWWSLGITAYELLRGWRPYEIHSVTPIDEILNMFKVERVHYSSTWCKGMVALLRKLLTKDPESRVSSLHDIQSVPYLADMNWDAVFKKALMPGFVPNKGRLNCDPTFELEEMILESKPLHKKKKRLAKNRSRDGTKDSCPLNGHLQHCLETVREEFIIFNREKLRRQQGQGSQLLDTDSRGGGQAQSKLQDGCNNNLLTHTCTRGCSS
Sequence of FES/FPS (P07332 whole entry): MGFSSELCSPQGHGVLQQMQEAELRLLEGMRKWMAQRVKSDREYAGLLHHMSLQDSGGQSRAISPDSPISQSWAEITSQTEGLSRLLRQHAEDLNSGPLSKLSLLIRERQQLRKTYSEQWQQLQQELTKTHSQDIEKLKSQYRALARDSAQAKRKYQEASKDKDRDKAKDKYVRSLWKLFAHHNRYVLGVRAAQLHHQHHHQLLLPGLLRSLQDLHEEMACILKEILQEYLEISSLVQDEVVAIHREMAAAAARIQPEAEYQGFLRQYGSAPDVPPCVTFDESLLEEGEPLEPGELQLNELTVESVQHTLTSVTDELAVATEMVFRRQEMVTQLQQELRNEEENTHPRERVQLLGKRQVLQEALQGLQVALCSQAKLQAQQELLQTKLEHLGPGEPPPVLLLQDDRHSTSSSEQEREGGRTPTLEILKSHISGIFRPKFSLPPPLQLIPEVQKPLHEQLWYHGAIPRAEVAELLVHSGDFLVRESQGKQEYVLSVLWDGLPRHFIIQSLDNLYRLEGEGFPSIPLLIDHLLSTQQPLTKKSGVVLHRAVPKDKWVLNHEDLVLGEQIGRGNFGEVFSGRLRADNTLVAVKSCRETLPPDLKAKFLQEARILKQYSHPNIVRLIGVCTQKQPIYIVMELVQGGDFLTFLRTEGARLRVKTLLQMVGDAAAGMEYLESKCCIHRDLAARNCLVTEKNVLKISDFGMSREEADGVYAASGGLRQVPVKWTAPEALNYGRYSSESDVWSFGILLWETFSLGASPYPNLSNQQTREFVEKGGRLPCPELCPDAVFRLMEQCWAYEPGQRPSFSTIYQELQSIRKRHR

## COc1cc(-c2cncc(-c3ccc(N4CCN(C)CC4)cc3)c2C)cc(F)c1C(N)=O [Compound 26a, 2-Fluoro-6-methoxy-4-(4-methyl-5-(4-(4-methylpiperazin-1-yl)phenyl)pyridin-3-yl)benzamide]
PIM2
  % enzyme activity: 95.51%
STK32B/YANK2
  % enzyme activity: 87.20%
MKK4
  % enzyme activity: 98.66%
MKK6
  remaining activity at 1 µM: 84.4%
LATS2
  % enzyme activity: 104.67%
STK22D/TSSK1
  remaining activity at 1 µM: 97.5%
MST3/STK24
  % enzyme activity: 87.91%
RAF1
  remaining activity at 1 µM: 78.7%
FES/FPS
  % enzyme activity: 99.20%
Aurora C
  remaining activity at 1 µM: 105%

## COc1cc(-c2cncc(-c3ccc(N4C[C@@H](C)N(C)[C@@H](C)C4)cc3)c2C)cc(F)c1C(N)=O [Compound 26c, 2-Fluoro-6-methoxy-4-(4-methyl-5-(4-((3R,5S)-3,4,5-trimethylpiperazin-1-yl)phenyl)pyridin-3-yl)benzamide]
PIM2
  % enzyme activity: 98.82%
STK32B/YANK2
  % enzyme activity: 94.20%
MKK4
  % enzyme activity: 93.94%
MKK6
  remaining activity at 1 µM: 79.7%
LATS2
  % enzyme activity: 100.36%
STK22D/TSSK1
  remaining activity at 1 µM: 101%
MST3/STK24
  % enzyme activity: 94.57%
RAF1
  remaining activity at 1 µM: 85.5%
FES/FPS
  % enzyme activity: 98.66%
Aurora C
  remaining activity at 1 µM: 100%
